Common to all, as to format: biochemical
Common to all, as to settings: procedures of Example 14 (TR-FRET)
(Time-resolved FRET reads energy transfer from a long-lived donor to a nearby acceptor.)

In one assay the target is JNK2 (Homo sapiens (Human), UniProt P45984). Description: JNK2 TR-FRET kinase assay (Example 14). Summed up:
(§1)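 Two TR-FRET formats were used for each JNK isoform. In the direct one, preactivated aJNK phosphorylated EPIW-1 at about 1 mM final ATP (RT, 15 min). Both were EDTA-quenched and read by HTRF.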

For the next assay, the target named is JNK1 (Homo sapiens (Human), UniProt P45983). In words: JNK1 TR-FRET kinase assay (Example 14). The method in brief:
as §1

Another assay addresses JNK3 (Homo sapiens (Human), UniProt P53779). In words: JNK3 TR-FRET kinase assay (Example 14). The method in brief: as §1

Bounds are passed on as bounds.

Chain of JNK1 (P45983 other isoform, or with tags, fused parts or gaps isoform P45983-2, species assumed): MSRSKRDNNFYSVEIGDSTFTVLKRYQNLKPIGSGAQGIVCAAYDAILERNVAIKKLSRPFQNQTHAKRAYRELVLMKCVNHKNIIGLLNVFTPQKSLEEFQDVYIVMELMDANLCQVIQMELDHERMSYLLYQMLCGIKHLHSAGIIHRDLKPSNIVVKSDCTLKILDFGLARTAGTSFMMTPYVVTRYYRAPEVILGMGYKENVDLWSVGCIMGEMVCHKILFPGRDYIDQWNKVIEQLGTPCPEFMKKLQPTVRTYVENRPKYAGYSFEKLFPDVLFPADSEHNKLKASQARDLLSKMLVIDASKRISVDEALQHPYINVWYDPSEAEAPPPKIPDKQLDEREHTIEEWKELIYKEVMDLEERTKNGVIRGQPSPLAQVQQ
Chain of JNK3 (P53779 whole entry, species assumed): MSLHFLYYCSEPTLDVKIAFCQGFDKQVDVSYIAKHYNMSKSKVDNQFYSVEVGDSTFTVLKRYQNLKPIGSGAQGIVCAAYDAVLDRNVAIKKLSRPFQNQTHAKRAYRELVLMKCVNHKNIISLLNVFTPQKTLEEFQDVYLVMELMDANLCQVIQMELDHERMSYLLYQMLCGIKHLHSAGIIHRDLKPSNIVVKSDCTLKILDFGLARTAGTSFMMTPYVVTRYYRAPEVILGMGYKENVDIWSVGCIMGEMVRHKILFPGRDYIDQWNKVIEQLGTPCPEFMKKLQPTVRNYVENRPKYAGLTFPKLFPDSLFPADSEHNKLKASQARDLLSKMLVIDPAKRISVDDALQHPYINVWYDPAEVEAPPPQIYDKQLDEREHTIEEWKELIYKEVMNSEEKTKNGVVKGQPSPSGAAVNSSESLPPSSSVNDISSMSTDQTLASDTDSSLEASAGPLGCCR
Chain of JNK2 (P45984 whole entry, species assumed, canonical isoform): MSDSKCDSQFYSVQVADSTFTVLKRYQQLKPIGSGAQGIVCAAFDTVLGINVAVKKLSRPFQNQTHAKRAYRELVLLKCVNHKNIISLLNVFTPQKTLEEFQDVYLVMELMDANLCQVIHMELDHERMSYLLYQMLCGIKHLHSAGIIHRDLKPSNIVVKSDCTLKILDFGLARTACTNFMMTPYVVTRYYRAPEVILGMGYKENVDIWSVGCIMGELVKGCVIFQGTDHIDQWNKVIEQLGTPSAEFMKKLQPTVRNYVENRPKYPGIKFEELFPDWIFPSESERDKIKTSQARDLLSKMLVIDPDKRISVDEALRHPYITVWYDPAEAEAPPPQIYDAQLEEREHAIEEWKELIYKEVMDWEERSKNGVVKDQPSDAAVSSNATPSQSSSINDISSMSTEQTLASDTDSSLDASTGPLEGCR

One may read the IC50 as the point on the concentration scale where inhibition reaches its midpoint. Read a low IC50 as greater potency. In the case of `Cc1csc(NC(=O)Cc2ccc(OCCCN3CCCCC3)cc2)c1-c1ncn[nH]1` [N-(4-methyl-3-(1H-1,2,4-triazol-5-yl)thiophen-2-yl)-2-(4-(3-(piperidin-1-yl)propoxy)phenyl)acetamide], the half-inhibitory concentration (IC50) against JNK2, at JNK1 and against JNK3 was 100 to 10000 nM throughout.

As for `O=C(CN1C(=O)CCc2ncccc21)Nc1scc(Br)c1-c1ncco1` [N-(4-bromo-3-(oxazol-2-yl)thiophen-2-yl)-2-(2-oxo-3,4-dihydro-1,5-naphthyridin-1(2H)-yl)acetamide], the IC50 on JNK2, against JNK1 and at JNK3 was less than 100 nM each time.

For `Cn1cnc(-c2c(Cl)csc2NC(=O)CN2C(=O)CCc3ncccc32)n1` [N-(4-chloro-3-(1-methyl-1H-1,2,4-triazol-3-yl)thiophen-2-yl)-2-(2-oxo-3,4-dihydro-1,5-naphthyridin-1(2H)-yl)acetamide], the IC50 on JNK2, at JNK1 and against JNK3 was less than 100 nM in each case.

As to `O=C(CN1C(=O)CCc2ccccc21)Nc1ccsc1-c1cscn1` [2-(2-oxo-3,4-dihydroquinolin-1(2H)-yl)-N-(2-(thiazol-4-yl)thiophen-3-yl)acetamide], the IC50 at JNK2, against JNK1 and against JNK3 was 100 to 10000 nM throughout.

Turning to `COc1ccc(CC(=O)Nc2ccsc2-c2nc(C3CC3)n[nH]2)cc1` [N-(2-(3-cyclopropyl-1H-1,2,4-triazol-5-yl)thiophen-3-yl)-2-(4-methoxyphenyl)acetamide], the IC50 against JNK2, against JNK1 and against JNK3 was 100 to 10000 nM throughout.

As to `COc1ccc(CC(=O)Nc2ccsc2-c2ncn[nH]2)cc1` [N-(2-(1H-1,2,4-triazol-5-yl)thiophen-3-yl)-2-(4-methoxyphenyl)acetamide], the IC50 against JNK2, on JNK1 and at JNK3 was 100 to 10000 nM in each case.

Turning to `COc1ccc(CC(=O)Nc2sccc2-c2noc(C)n2)cc1` [2-(4-methoxyphenyl)-N-(3-(5-methyl-1,2,4-oxadiazol-3-yl)thiophen-2-yl)acetamide], the IC50 at JNK2, on JNK1 and against JNK3 was 100 to 10000 nM throughout.

As for `O=C(CN1C(=O)CCc2cnccc21)Nc1scc(Br)c1-c1ncn[nH]1` [N-(4-bromo-3-(1H-1,2,4-triazol-5-yl)thiophen-2-yl)-2-(2-oxo-3,4-dihydro-1,6-naphthyridin-1(2H)-yl)acetamide], the IC50 against JNK2, against JNK1 and against JNK3 was less than 100 nM in each case.

As for `Cc1csc(NC(=O)Cc2cccc3cnccc23)c1-c1nc2ccccc2s1` [N-(3-(benzo[d]thiazol-2-yl)-4-methylthiophen-2-yl)-2-(isoquinolin-5-yl)acetamide], the results for the IC50 on JNK2, against JNK1 and on JNK3 were greater than 10000 nM, 100 to 10000 nM and 100 to 10000 nM, respectively.

Regarding `O=C(Cc1cccc2ncsc12)Nc1scc(Br)c1-c1ncn[nH]1` [2-(benzo[d]thiazol-7-yl)-N-(4-bromo-3-(1H-1,2,4-triazol-5-yl)thiophen-2-yl)acetamide], the IC50 against JNK2 is 100 to 10000 nM; on JNK1, less than 100 nM; against JNK3 it was less than 100 nM.

Take `O=C(Cc1cccc2ccccc12)Nc1ccsc1-n1ccnc1` [N-(2-(1H-imidazol-1-yl)thiophen-3-yl)2-(naphthalen-1-yl)acetamide]: the IC50 is greater than 50000 nM on JNK2, greater than 10000 nM against JNK1 and 100 to 10000 nM at JNK3.

On to `Cc1nc(-c2sccc2NC(=O)CN2C(=O)CCc3ccccc32)c[nH]1` [N-(2-(2-methyl-1H-imidazol-4-yl)thiophen-3-yl)-2-(2-oxo-3,4-dihydroquinolin-1(2H)-yl)acetamide], for which the IC50 is greater than 50000 nM on JNK2, greater than 10000 nM against JNK1 and greater than 10000 nM on JNK3.

With `Cc1csc(-c2sccc2NC(=O)Cc2cccc3cnccc23)n1` [2-(isoquinolin-5-yl)-N-(2-(4-methylthiazol-2-yl)thiophen-3-yl)acetamide], the IC50 against JNK2, against JNK1 and against JNK3 was 100 to 10000 nM each time.

`O=C(Cn1c(=O)ccc2cc(C(F)(F)F)ccc21)Nc1scc(Br)c1-c1ncn[nH]1` [N-(4-bromo-3-(1H-1,2,4-triazol-5-yl)thiophen-2-yl)-2-(2-oxo-6-(trifluoromethyl)quinolin-1(2H)-yl)acetamide]: the IC50 against JNK2, against JNK1 and at JNK3 was less than 100 nM throughout.

Consider `O=C(Cn1c(=O)ccc2cc(Cl)ccc21)Nc1scc(Br)c1-c1ncn[nH]1` [N-(4-bromo-3-(1H-1,2,4-triazol-5-yl)thiophen-2-yl)-2-(6-chloro-2-oxoquinolin-1(2H)-yl)acetamide], for which the IC50 at JNK2, on JNK1 and against JNK3 was less than 100 nM each time.

Turning to `O=C(Cn1c(=O)ccc2ccc(C(F)(F)F)cc21)Nc1scc(Br)c1-c1ncn[nH]1` [N-(4-bromo-3-(1H-1,2,4-triazol-5-yl)thiophen-2-yl)-2-(2-oxo-7-(trifluoromethyl)quinolin-1(2H)-yl)acetamide], the IC50 at JNK2, at JNK1 and on JNK3 was less than 100 nM throughout.

Regarding `N#Cc1csc(NC(=O)CN2C(=O)CCc3ncccc32)c1-c1nc2ccccc2s1` [N-(3-(benzo[d]thiazol-2-yl)-4-cyanothiophen-2-yl)-2-(2-oxo-3,4-dihydro-1,5-naphthyridin-1(2H)-yl)acetamide], the 50% inhibitory concentration (IC50) against JNK2, against JNK1 and on JNK3 was 100 to 10000 nM throughout.

In the case of `COc1ccc(CC(=O)Nc2ccsc2-n2cccn2)cc1` [N-(2-(1H-pyrazol-1-yl)thiophen-3-yl)-2-(4-methoxyphenyl)-acetamide], the figures for the IC50 on JNK2, against JNK1 and at JNK3 were greater than 50000 nM, greater than 10000 nM and greater than 10000 nM, respectively.

`CCc1n[nH]c(-c2c(Cl)csc2NC(=O)CN2C(=O)CCc3ncccc32)n1` [N-(4-chloro-3-(3-ethyl-1H-1,2,4-triazol-5-yl)thiophen-2-yl)-2-(2-oxo-3,4-dihydro-1,5-naphthyridin-1(2H)-yl)acetamide]: the IC50 against JNK2 was 100 to 10000 nM; on JNK1, less than 100 nM; on JNK3, less than 100 nM.

Take `O=C(Cn1c(=O)ccc2cc(C(F)(F)F)ccc21)Nc1scc(Br)c1-n1nccn1` [N-(4-bromo-3-(2H-1,2,3-triazol-2-yl)thiophen-2-yl)-2-(2-oxo-6-(trifluoromethyl)quinolin-1(2H)-yl)acetamide]: the results for the IC50 against JNK2, against JNK1 and at JNK3 were 100 to 10000 nM, less than 100 nM and less than 100 nM, respectively.

Take `O=C(Cc1cccc2cnccc12)Nc1scnc1-c1ncn[nH]1` [N-(4-(1H-1,2,4-triazol-5-yl)thiazol-5-yl)-2-(isoquinolin-5-yl)acetamide]: the IC50 at JNK2, at JNK1 and against JNK3 was 100 to 10000 nM in each case.

Turning to `Cc1n[nH]c(-c2c(C)csc2NC(=O)CN2C(=O)CCc3ccccc32)n1` [N-(4-methyl-3-(3-methyl-1H-1,2,4-triazol-5-yl)thiophen-2-yl)-2-(2-oxo-3,4-dihydroquinolin-1(2H)-yl)acetamide], the IC50 on JNK2, against JNK1 and against JNK3 was less than 100 nM each time.

Take `N#Cc1csc(NC(=O)Cc2cccc3ncccc23)c1-c1cnccn1` [N-(4-cyano-3-(pyrazin-2-yl)thiophen-2-yl)-2-(quinolin-5-yl)acetamide]: the IC50 was 100 to 10000 nM against JNK2, less than 100 nM at JNK1 and less than 100 nM on JNK3.

In the case of `N#Cc1csc(NC(=O)Cn2c(=O)ccc3cc(C(F)(F)F)ccc32)c1-c1cncs1` [N-(4-cyano-3-(thiazol-5-yl)thiophen-2-yl)-2-(2-oxo-6-(trifluoromethyl)quinolin-1(2H)-yl)acetamide], the IC50 on JNK2, against JNK1 and against JNK3 was 100 to 10000 nM throughout.

Turning to `Cn1cnc(-c2c(C#N)csc2NC(=O)Cc2cccc3ncccc23)n1` [N-(4-cyano-3-(1-methyl-1H-1,2,4-triazol-3-yl)thiophen-2-yl)-2-(quinolin-5-yl)acetamide], the IC50 against JNK2, against JNK1 and against JNK3 was less than 100 nM throughout.

`COc1ccc(CC(=O)Nc2ccsc2-c2cn(C)cn2)cc1` [2-(4-methoxyphenyl)-N-(2-(1-methyl-1H-imidazol-4-yl)thiophen-3-yl)acetamide]: the IC50 at JNK2 is greater than 50000 nM; against JNK1, greater than 10000 nM; on JNK3 it was greater than 10000 nM.

Consider `O=C(Cn1c(=O)ccn2nc(C(F)(F)F)cc12)Nc1scc(Cl)c1-c1ncn[nH]1` [N-(4-chloro-3-(1H-1,2,4-triazol-5-yl)thiophen-2-yl)-2-(5-oxo-2-(trifluoromethyl)pyrazolo[1,5-a]pyrimidin-4(5H)-yl)acetamide], for which the IC50 at JNK2, against JNK1 and on JNK3 was less than 100 nM in each case.

For the compound `O=C(CN1C(=O)CCc2cc(F)ccc21)Nc1scc(Br)c1-c1ncn[nH]1` [N-(4-bromo-3-(1H-1,2,4-triazol-5-yl)thiophen-2-yl)-2-(6-fluoro-2-oxo-3,4-dihydroquinolin-1(2H)-yl)acetamide], the IC50 against JNK2, on JNK1 and against JNK3 was less than 100 nM each time.

`O=C(Cc1cccc2cnccc12)Nc1ccsc1-c1ncco1` [2-(isoquinolin-5-yl)-N-(2-(oxazol-2-yl)thiophen-3-yl)acetamide]: the IC50 against JNK2, against JNK1 and against JNK3 was 100 to 10000 nM in each case.

With `O=C(Cc1ccc(F)c2cnccc12)Nc1scc(Br)c1-c1ncn[nH]1` [N-(4-bromo-3-(1H-1,2,4-triazol-5-yl)thiophen-2-yl)-2-(8-fluoroisoquinolin-5-yl)acetamide], the IC50 against JNK2, against JNK1 and on JNK3 was less than 100 nM each time.

The values above are taken from patent publication US9796706B2, “Inhibitors of Jun N-terminal kinase” (IMAGO PHARMACEUTICALS, INC., priority 2009, dated 2017).
